Measurements taken from US12150995B2, “IRAK degraders and uses thereof” (Kymera Therapeutics, Inc., priority 2020, dated 2024).

Molecular target: T1, IRAK4 (Homo sapiens, UniProt Q9NWZ3)
T1 construct: endogenous in cells; host or cells: OCI-LY10
T1 sequence (Q9NWZ3 1-460): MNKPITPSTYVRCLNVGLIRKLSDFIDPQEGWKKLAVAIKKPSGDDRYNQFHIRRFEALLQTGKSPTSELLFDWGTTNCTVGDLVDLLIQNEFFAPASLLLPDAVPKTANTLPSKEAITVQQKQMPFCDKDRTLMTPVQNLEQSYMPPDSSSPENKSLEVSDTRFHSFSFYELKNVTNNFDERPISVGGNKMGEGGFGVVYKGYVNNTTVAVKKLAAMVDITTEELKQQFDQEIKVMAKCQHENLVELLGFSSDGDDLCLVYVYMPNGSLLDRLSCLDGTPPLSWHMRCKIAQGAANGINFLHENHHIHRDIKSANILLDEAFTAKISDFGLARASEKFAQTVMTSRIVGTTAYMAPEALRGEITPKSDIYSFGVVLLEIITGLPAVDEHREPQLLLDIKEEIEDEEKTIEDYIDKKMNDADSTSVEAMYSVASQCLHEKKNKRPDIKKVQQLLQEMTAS
Assay: IRAK4 MSD Degradation in OCI-LY10
Assay type: cell-based
Details: OCI-LY10 cells, Meso Scale Discovery, incubated 4 to 24 hours
Summary of the method: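 IRAK4 degradation was quantified by Meso Scale electrochemiluminescence (anti-IRAK4 capture and detection antibodies) in lysates of treated OCI-LY10 cells. Compounds were dosed at 8 concentrations (1:3 dilutions, top 1 to 10 μM) for 4 to 24 h; DC50 derived by three-parameter logistic fitting.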

Row | Compound | DC50 [nM]
1 | COc1cc2nn([C@H]3CC[C@H](CN4CCN(c5cccc6c(N7CCC(=O)NC7=O)ncnc56)CC4)CC3)cc2cc1NC(=O)c1cccc(C(F)(F)F)n1 [I-380] | 10 to 50
2 | COc1cc2nn([C@H]3CC[C@H](CN4CCN(c5cccc6c(N7CCC(=O)NC7=O)ccnc56)CC4)CC3)cc2cc1NC(=O)c1cccc(C(F)(F)F)n1 [I-382] | < 10
3 | Cn1c(=O)n(C2CCC(=O)NC2=O)c2cccc(N3CCN(C[C@H]4CC[C@H](n5cc6cc(NC(=O)c7cccc(C(F)(F)F)n7)c(N7C[C@@H]8C[C@H]7CO8)cc6n5)CC4)CC3)c21 (some centres unmarked) [I-383] | < 10
4 | Cn1c(=O)n(C2CCC(=O)NC2=O)c2cccc(N3CCN(C[C@H]4CC[C@H](n5cc6cc(NC(=O)c7cccc(C(F)(F)F)n7)c(N7C[C@H]8C[C@@H]7CO8)cc6n5)CC4)CC3)c21 (some centres unmarked) [I-384] | < 10
5 | COc1cc2nn([C@H]3CC[C@H](CN4CCC(O[C@H]5C[C@@H](c6cccc7c6n(C)c(=O)n7C6CCC(=O)NC6=O)C5)CC4)CC3)cc2cc1NC(=O)c1cccc(C(F)(F)F)n1 (some centres unmarked) [I-385] | 10 to 50
6 | COc1cc2nn([C@H]3CC[C@H](CN4CCC(O[C@H]5C[C@H](c6cccc7c6n(C)c(=O)n7C6CCC(=O)NC6=O)C5)CC4)CC3)cc2cc1NC(=O)c1cccc(C(F)(F)F)n1 (some centres unmarked) [I-386] | 10 to 50
7 | Cn1c(=O)n(C2CCC(=O)NC2=O)c2cccc(N3CCN(C[C@H]4CC[C@H](n5cc6cc(NC(=O)c7cccc(C(F)(F)F)n7)c(N7CCC7)cc6n5)CC4)CC3)c21 (some centres unmarked) [I-387] | 10 to 50
8 | CN(C)c1cc2nn([C@H]3CC[C@H](CN4CCN(c5cccc6c5n(C)c(=O)n6C5CCC(=O)NC5=O)CC4)CC3)cc2cc1NC(=O)c1cccc(C(F)(F)F)n1 (some centres unmarked) [I-388] | 10 to 50
9 | Cc1cc2nn([C@H]3CC[C@H](CN4C[C@H]5C[C@@H]4CN5c4cccc5c4n(C)c(=O)n5C4CCC(=O)NC4=O)CC3)cc2cc1NC(=O)c1cccc(C(F)(F)F)n1 (some centres unmarked) [I-389] | 10 to 50
10 | COc1ccc2c(c1N1CCN(C[C@H]3CC[C@H](NC(=O)c4cnc(-n5ccc6cc(C#N)cnc65)cc4NC(C)C)CC3)CC1)n(C)c(=O)n2C1CCC(=O)NC1=O (some centres unmarked) [I-391] | 10 to 50
11 | Cn1c(=O)n(C2CCC(=O)NC2=O)c2cccc(N3CCN(C[C@H]4CC[C@H](n5cc6cc(NC(=O)c7cccc(C(F)(F)F)n7)c(N7CCCC7)cc6n5)CC4)CC3)c21 (some centres unmarked) [I-392] | 10 to 50
12 | COc1ccc2c(c1N1CCN(C[C@H]3CC[C@H](NC(=O)c4cnc(-c5ccc6cc(C#N)cnn56)cc4NC(C)C)CC3)CC1)n(C)c(=O)n2C1CCC(=O)NC1=O (some centres unmarked) [I-395] | < 10
13 | Cc1cc2nn([C@H]3CC[C@H](CN4C5CC4CN(c4cccc6c4n(C)c(=O)n6C4CCC(=O)NC4=O)C5)CC3)cc2cc1NC(=O)c1cccc(C(F)(F)F)n1 (some centres unmarked) [I-396] | 10 to 50
14 | CC(C)c1cc2nn([C@H]3CC[C@H](CN4CCN(c5cccc6c5n(C)c(=O)n6C5CCC(=O)NC5=O)CC4)CC3)cc2cc1NC(=O)c1cccc(C(F)(F)F)n1 (some centres unmarked) [I-397] | < 10
15 | Cc1cc2nn([C@H]3CC[C@H](CN4C5CCC4CN(c4cccc6c4n(C)c(=O)n6C4CCC(=O)NC4=O)C5)CC3)cc2cc1NC(=O)c1cccc(C(F)(F)F)n1 (some centres unmarked) [I-398] | < 10
16 | Cc1cc2nn([C@H]3CC[C@H](CN4CCN(c5cccc6c5n(C)c(=O)n6[C@H]5CCC(=O)NC5=O)CC4)CC3)cc2cc1NC(=O)c1cccc(C(F)(F)F)n1 [I-399, N-[2-[4-[[4-[1-[(3S)-2,6-dioxo-3-piperidyl]-3-methyl-2-oxo-benzimidazol-4-yl]piperazin-1-yl]methyl]cyclohexyl]-6-methyl-indazol-5-yl]-6-(trifluoromethyl)pyridine-2-carboxamide] | 10 to 50
17 | Cc1cc2nn([C@H]3CC[C@H](CN4CCN(c5cccc6c5n(C)c(=O)n6[C@@H]5CCC(=O)NC5=O)CC4)CC3)cc2cc1NC(=O)c1cccc(C(F)(F)F)n1 [I-400, N-[2-[4-[[4-[1-[(3R)-2,6-dioxo-3-piperidyl]-3-methyl-2-oxo-benzimidazol-4-yl]piperazin-1-yl]methyl]cyclohexyl]-6-methyl-indazol-5-yl]-6-(trifluoromethyl)pyridine-2-carboxamide] | < 10
18 | Cc1cc2nn([C@H]3CC[C@H](CN4CCN(c5cccc6c5n(C)c(=O)n6C5CCC(=O)NC5=O)CC4)CC3)cc2cc1NC(=O)c1cncc(C(F)(F)F)n1 (some centres unmarked) [I-401] | < 10
19 | Cc1cc2nn([C@H]3CC[C@H](CN4CCC(c5cccc6c5n(C)c(=O)n6C5CCC(=O)N(C)C5=O)CC4)CC3)cc2cc1NC(=O)c1cccc(C(F)(F)F)n1 (some centres unmarked) [I-403] | > 200
20 | Cc1cc2nn([C@H]3CC[C@H](CN4CCN(c5cccc6c5n(C)c(=O)n6C5CCC(=O)N(C)C5=O)CC4)CC3)cc2cc1NC(=O)c1cccc(C(F)(F)F)n1 (some centres unmarked) [I-404] | > 200
21 | COC(=O)c1cc2nn([C@H]3CC[C@H](CN4CCN(c5cccc6c5n(C)c(=O)n6C5CCC(=O)NC5=O)CC4)CC3)cc2cc1NC(=O)c1cccc(C(F)(F)F)n1 (some centres unmarked) [I-405] | 10 to 50

Row | Compound | DC50 [nM]
22 | Cn1c(=O)n(C2CCC(=O)NC2=O)c2cccc(N3CCN(C[C@H]4CC[C@H](n5cc6cc7nc(-c8cccc(C(F)(F)F)n8)oc(=O)c7cc6n5)CC4)CC3)c21 (some centres unmarked) [I-406, 3-[3-methyl-2-oxo-4-[4-[[4-[8-oxo-6-[6-(trifluoromethyl)-2-pyridyl]pyrazolo[3,4-g] [3,1]benzoxazin-2-yl]cyclohexyl]methyl]piperazin-1-yl]benzimidazol-1-yl]piperidine-2,6-dione] | 10 to 50
23 | CC(C)Nc1c(C(=O)N[C@H]2CC[C@H](CN3CCN(c4cccc5c4n(C)c(=O)n5C4CCC(=O)NC4=O)CC3)CC2)cnc2c1Oc1cc(C#N)ccc1O2 (some centres unmarked) [I-407] | < 10
24 | CC(C)Nc1c(C(=O)N[C@H]2CC[C@H](CN3CCN(c4cccc5c(N6CCC(=O)NC6=O)cncc45)CC3)CC2)cnc2c1Oc1ccc(C#N)cc1O2 [I-408] | > 200
25 | CC(C)Nc1c(C(=O)N[C@H]2CC[C@H](CN3CCN(c4cccc5c4n(C)c(=O)n5C4CCC(=O)NC4=O)CC3)CC2)cnc2c1Oc1ccc(C#N)cc1O2 (some centres unmarked) [I-410] | > 200
26 | CC(C)Nc1cc(-c2ccc3cc(C#N)cnn23)ncc1-c1cn([C@H]2CC[C@H](CN3CCN(c4cccc5c4n(C)c(=O)n5C4CCC(=O)NC4=O)CC3)CC2)nn1 (some centres unmarked) [I-411] | 10 to 50
27 | CC(=O)c1cc2nn([C@H]3CC[C@H](CN4CCN(c5cccc6c5n(C)c(=O)n6C5CCC(=O)NC5=O)CC4)CC3)cc2cc1NC(=O)c1cccc(C(F)(F)F)n1 (some centres unmarked) [I-412] | < 10
28 | COc1cc2nn([C@H]3CC[C@H](CN4CCN(c5cc(F)cc6c(N7CCC(=O)NC7=O)cncc56)CC4)CC3)cc2cc1NC(=O)c1cccc(C(F)(F)F)n1 [I-413] | < 10
29 | Cc1cc2nn([C@H]3CC[C@H](CN4CC5CC(C4)N5c4cccc5c4n(C)c(=O)n5C4CCC(=O)NC4=O)CC3)cc2cc1NC(=O)c1cccc(C(F)(F)F)n1 (some centres unmarked) [I-414] | 10 to 50
30 | Cn1c(=O)n(C2CCC(=O)NC2=O)c2cccc(N3CCN(C[C@H]4CC[C@H](n5cc6cc(NC(=O)c7cccc(C(F)(F)F)n7)c(C(=O)O)cc6n5)CC4)CC3)c21 (some centres unmarked) [I-415, 2-[4-[[4-[1-(2,6-dioxo-3-piperidyl)-3-methyl-2-oxo-benzimidazol-4-yl]piperazin-1-yl]methyl]cyclohexyl]-5-[[6-(trifluoromethyl)pyridine-2-carbonyl]amino]indazole-6-carboxylic acid] | 10 to 50
31 | CC(C)Nc1c(C(=O)N[C@H]2CC[C@H](CN3CCN(c4cccc5c4n(C)c(=O)n5C4CCC(=O)NC4=O)CC3)CC2)cnc2sc(-c3cncs3)cc12 (some centres unmarked) [I-416] | < 10
32 | CC(C)Nc1c(C(=O)N[C@H]2CC[C@H](CN3CCC(c4cccc5c4n(C)c(=O)n5C4CCC(=O)NC4=O)CC3)CC2)cnc2sc(-c3cncs3)cc12 (some centres unmarked) [I-417] | < 10
33 | CC(C)Nc1c(C(=O)N[C@H]2CC[C@H](CN3CCN(c4cccc5c(N6CCC(=O)NC6=O)cncc45)CC3)CC2)cnc2sc(-c3cncs3)cc12 [I-418] | 10 to 50
34 | COc1ccc2c(c1C1CCN(C[C@H]3C[C@H](n4cc5cc(NC(=O)c6cccc(C(F)(F)F)n6)ncc5n4)C3)CC1)n(C)c(=O)n2C1CCC(=O)NC1=O (some centres unmarked) [I-421] | 50 to 100
35 | Cn1c(=O)n(C2CCC(=O)NC2=O)c2cccc(N3CCN(C[C@H]4CC[C@H](n5cc6cc(NC(=O)c7cccc(C(F)(F)F)n7)c(S(C)(=O)=O)cc6n5)CC4)CC3)c21 (some centres unmarked) [I-422] | < 10
36 | Cn1c(=O)n(C2CCC(=O)NC2=O)c2cccc(N3C[C@@H]4C[C@H]3CN4C[C@H]3CC[C@H](n4cc5cc(NC(=O)c6cccc(C(F)(F)F)n6)ccc5n4)CC3)c21 (some centres unmarked) [I-423] | < 10
37 | COc1cc2nn([C@H]3CC[C@H](CN4CCC(c5cccc6c5n(C)c(=O)n6C5CCC(=O)NC5=O)CC4(C)C)CC3)cc2cc1NC(=O)c1cccc(C(F)(F)F)n1 (some centres unmarked) [I-424] | < 10
38 | COc1cc2nn([C@H]3CC[C@H](CN4CCN(c5cccc6c5n(C5CC5)c(=O)n6C5CCC(=O)NC5=O)CC4)CC3)cc2cc1NC(=O)c1cccc(C(F)(F)F)n1 (some centres unmarked) [I-426] | < 10
39 | COc1cc2nc(N3CCC(CN4CCN(c5cccc6c5n(C)c(=O)n6C5CCC(=O)NC5=O)CC4)CC3)sc2cc1NC(=O)c1cccc(C(F)(F)F)n1 (centres unmarked) [I-427] | 10 to 50
40 | COc1cc2nn([C@H]3CC[C@H](CN4CC[C@@H](c5cccc6c5n(C)c(=O)n6C5CCC(=O)NC5=O)C4)CC3)cc2cc1NC(=O)c1cccc(C(F)(F)F)n1 (some centres unmarked) [I-428] | < 10
41 | CC(C)(O)c1cc2nc([C@H]3CC[C@H](C(=O)N4CCC5(CC4)CC(CCNc4cccc6c4C(=O)N(C4CCC(=O)NC4=O)C6=O)C5)CC3)sc2cc1NC(=O)c1cccc(C#N)n1 (some centres unmarked) [I-430] | 100 to 200
